Patent US20260022096A1, “NOVEL SULFONAMIDES AND THEIR USE AS NEUROPROTECTIVE AND/OR NEURORESTORATIVE AGENTS” (GENECODE, priority 2022, published 2026)

Biological target: T1, GFRα1-RET (Homo sapiens, UniProt P56159)
T1 construct: expressed in transfected cells; host or cells: MG87 murine fibroblasts, stably transfected
T1 sequence (P56159 25-429 limits assumed): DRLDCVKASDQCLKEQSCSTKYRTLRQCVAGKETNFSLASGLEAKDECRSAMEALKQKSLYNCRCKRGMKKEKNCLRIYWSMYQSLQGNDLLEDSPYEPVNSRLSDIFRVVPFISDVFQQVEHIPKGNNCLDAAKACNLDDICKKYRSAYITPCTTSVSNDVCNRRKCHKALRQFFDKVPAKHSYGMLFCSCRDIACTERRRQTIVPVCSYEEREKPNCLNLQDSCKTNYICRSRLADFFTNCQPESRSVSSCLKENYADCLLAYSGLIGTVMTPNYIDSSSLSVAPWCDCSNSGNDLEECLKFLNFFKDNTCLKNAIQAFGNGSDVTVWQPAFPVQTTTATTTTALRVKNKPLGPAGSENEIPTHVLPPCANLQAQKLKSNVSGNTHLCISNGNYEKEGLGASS
Assay: Elk1 reporter-gene (luciferase) assay in cells expressing GFRα1-RET
Type: cell-based
Conditions: MG87 murine fibroblasts stably transfected with PathDetect Elk-1, GFRα1 and RET, 6 concentrations, agonist/activator activity
Method: For ECso determination, a dose-response test was performed using 6 concentrations of each tested compound. Dose-response curves were fitted using the sigmoidal dose-response (variable slope) analysis in GraphPad Prism program (Graph Pad Inc) and ECso of agonist/activator activity was calculated. Dose-response experiments were all performed in duplicate, two times independently.

SMILES | EC50 [nM]
O=C(c1ccc(F)cc1Cl)N1C[C@H]2CC[C@@H](C1)N2c1cc(S(=O)(=O)N2CCC(CCc3ccccc3)CC2)ccc1O [compound 062] | < 1000
O=C(c1ccc(F)cc1Cl)N1C[C@H]2CC[C@@H](C1)N2c1cc(S(=O)(=O)N2CCC(c3ccccc3)CC2)ccc1O [compound 063, (2-chloro-4-fluoro-phenyl)-[(1S,5R)-8-[2-hydroxy-5-[(4-phenyl-1-piperidyl)sulfonyl]phenyl]-3,8-diazabicyclo[3.2.1]octan-3-yl]methanone] | < 1000
O=C(c1ccc(F)cc1Cl)N1C[C@H]2CC[C@@H](C1)N2c1cc(S(=O)(=O)N2CCN(CCc3ccc(Cl)cc3)CC2)ccc1O [compound 064, (2-chloro-4-fluoro-phenyl)-[(1S,5R)-8-[5-[4-[2-(4-chlorophenyl)ethyl]piperazin-1-yl]sulfonyl-2-hydroxy-phenyl]-3,8-diazabicyclo[3.2.1]octan-3-yl]methanone] | < 1000
O=C(c1ccc(F)cc1Cl)N1C[C@H]2CC[C@@H](C1)N2c1cc(S(=O)(=O)N2CCC(c3ccc(F)cc3)CC2)ccc1O [compound 065, (2-chloro-4-fluoro-phenyl)-[(1S,5R)-8-[5-[[4-(4-fluorophenyl)-1-piperidyl]sulfonyl]-2-hydroxy-phenyl]-3,8-diazabicyclo[3.2.1]octan-3-yl]methanone] | < 1000
O=C(c1ccc(F)cc1Cl)N1C[C@H]2CC[C@@H](C1)N2c1cc(S(=O)(=O)N2CCC(c3ccccc3)CC2)ccc1Cl [compound 066, (2-chloro-4-fluoro-phenyl)-[(1S,5R)-8-[2-chloro-5-[(4-phenyl-1-piperidyl)sulfonyl]phenyl]-3,8-diazabicyclo[3.2.1]octan-3-yl]methanone] | < 1000
Cc1ccc(S(=O)(=O)N2CCC(c3ccccc3)CC2)cc1N1[C@@H]2CC[C@H]1CN(C(=O)c1ccc(F)cc1Cl)C2 [compound 067, (2-chloro-4-fluoro-phenyl)-[(1S,5R)-8-[2-methyl-5-[(4-phenyl-1-piperidyl)sulfonyl]phenyl]-3,8-diazabicyclo[3.2.1]octan-3-yl]methanone] | < 1000
CCCN(C)S(=O)(=O)c1ccc(C)c(N2[C@@H]3CC[C@H]2CN(C(=O)c2ccc(F)cc2Cl)C3)c1 [compound 068, 3-[(1S,5R)-3-(2-chloro-4-fluoro-benzoyl)-3,8-diazabicyclo[3.2.1]octan-8-yl]-N,4-dimethyl-N-propyl-benzenesulfonamide] | < 1000
COC(=O)c1ccc(S(=O)(=O)N2CCC(c3ccccc3)CC2)cc1N1[C@@H]2CC[C@H]1CN(C(=O)c1ccc(F)cc1Cl)C2 [compound 069, methyl 2-[(1S,5R)-3-(2-chloro-4-fluoro-benzoyl)-3,8-diazabicyclo[3.2.1]octan-8-yl]-4-[(4-phenyl-1-piperidyl)sulfonyl]benzoate] | < 1000
O=C(c1ccc(F)cc1Cl)N1C[C@H]2CC[C@@H](C1)N2c1cc(S(=O)(=O)N2CCC(c3ccccc3)CC2)ccc1CO [compound 070, (2-chloro-4-fluoro-phenyl)-[(1S,5R)-8-[2-(hydroxymethyl)-5-[(4-phenyl-1-piperidyl)sulfonyl]phenyl]-3,8-diazabicyclo[3.2.1]octan-3-yl]methanone] | < 1000
O=C(O)c1ccc(S(=O)(=O)N2CCC(c3ccccc3)CC2)cc1N1[C@@H]2CC[C@H]1CN(C(=O)c1ccc(F)cc1Cl)C2 [compound 071, 2-[(1S,5R)-3-(2-chloro-4-fluoro-benzoyl)-3,8-diazabicyclo[3.2.1]octan-8-yl]-4-[(4-phenyl-1-piperidyl)sulfonyl]benzoic acid] | < 1000
CC(C)(O)c1ccc(S(=O)(=O)N2CCC(c3ccccc3)CC2)cc1N1[C@@H]2CC[C@H]1CN(C(=O)c1ccc(F)cc1Cl)C2 [compound 072, (2-chloro-4-fluoro-phenyl)-[(1S,5R)-8-[2-(1-hydroxy-1-methyl-ethyl)-5-[(4-phenyl-1-piperidyl)sulfonyl]phenyl]-3,8-diazabicyclo[3.2.1]octan-3-yl]methanone] | 1000 to 10000
